Source: patent US20250326732A1 (Pretzel Therapeutics, Inc., priority 2021, published 2025)

Molecular target: POLRMT (Homo sapiens (Human), UniProt O00411)
Assay: homogeneous TR-FRET assay of mitochondrial transcription (inhibition of POLRMT)
Format: biochemical
Conditions: 7.5 nM POLRMT, 15 nM TFB2M, 30 nM TFAM, 0.5 nM DNA template, 500 μM NTPs, 37° C. for 60 minutes
Outline: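 POLRMT transcription from linearized pUC-LSP DNA template; RNA product detected by hybridization of ATTO647 acceptor (1 nM) and biotinylated donor (3 nM) probes plus Europium-streptavidin. Reaction stopped with EDTA/700 mM NaCl buffer, pH 7.5.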

Sequence of POLRMT (O00411 42-1230): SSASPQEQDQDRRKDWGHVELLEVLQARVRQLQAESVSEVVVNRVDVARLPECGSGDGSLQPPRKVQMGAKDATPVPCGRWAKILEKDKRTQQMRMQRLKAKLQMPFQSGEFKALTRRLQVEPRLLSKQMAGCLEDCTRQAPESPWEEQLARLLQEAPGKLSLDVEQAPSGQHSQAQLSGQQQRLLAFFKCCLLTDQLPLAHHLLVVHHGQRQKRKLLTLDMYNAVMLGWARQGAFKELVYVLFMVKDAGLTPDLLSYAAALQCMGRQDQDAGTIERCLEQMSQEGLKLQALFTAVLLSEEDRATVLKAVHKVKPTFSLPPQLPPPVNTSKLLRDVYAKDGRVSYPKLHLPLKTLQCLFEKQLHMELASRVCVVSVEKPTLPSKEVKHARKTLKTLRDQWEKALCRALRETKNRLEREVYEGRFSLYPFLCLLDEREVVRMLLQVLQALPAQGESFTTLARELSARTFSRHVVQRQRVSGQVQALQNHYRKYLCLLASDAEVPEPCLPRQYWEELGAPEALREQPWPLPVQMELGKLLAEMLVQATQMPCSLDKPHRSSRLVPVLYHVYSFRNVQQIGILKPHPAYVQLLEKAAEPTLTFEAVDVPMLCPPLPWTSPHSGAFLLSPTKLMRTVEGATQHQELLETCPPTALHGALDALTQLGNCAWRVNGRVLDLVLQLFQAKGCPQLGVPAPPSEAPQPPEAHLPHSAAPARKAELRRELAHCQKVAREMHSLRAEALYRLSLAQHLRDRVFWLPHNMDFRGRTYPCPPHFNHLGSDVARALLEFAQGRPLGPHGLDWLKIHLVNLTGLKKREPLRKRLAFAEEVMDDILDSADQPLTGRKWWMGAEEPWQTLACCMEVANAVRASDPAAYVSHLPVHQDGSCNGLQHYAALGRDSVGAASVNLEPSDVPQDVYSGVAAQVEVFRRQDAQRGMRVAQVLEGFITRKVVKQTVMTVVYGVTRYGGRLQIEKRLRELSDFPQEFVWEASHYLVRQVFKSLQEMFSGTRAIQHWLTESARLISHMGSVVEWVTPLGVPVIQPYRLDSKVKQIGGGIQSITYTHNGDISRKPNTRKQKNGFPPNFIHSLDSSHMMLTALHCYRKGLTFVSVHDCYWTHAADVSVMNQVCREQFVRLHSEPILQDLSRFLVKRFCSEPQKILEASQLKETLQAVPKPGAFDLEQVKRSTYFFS

SMILES	IC50
Cc1ccccc1-c1cc(=O)oc2cc(C(=O)NCc3nccn3C)ccc12 [Example 122, N-((1-methyl-1H-imidazol-2-yl)methyl)-2-oxo-4-(o-tolyl)-2H-chromene-7-carboxamide]	5000 nM
Cc1ccccc1-c1cc(=O)oc2cc(NCc3ccn(C)n3)ccc12 [Example 119, 7-(((1-methyl-1H-pyrazol-3-yl)methyl)amino)-4-(o-tolyl)-2H-chromen-2-one]	2000 nM
COCC1CN(C(=O)c2ccc3c(-c4ccccc4C)cc(=O)oc3c2)C1 [Example 115, 7-(3-(methoxymethyl)azetidine-1-carbonyl)-4-(o-tolyl)-2H-chromen-2-one]	18000 nM
C[C@@H](Nc1ccc2c(-c3ccc(F)cc3Cl)cc(=O)oc2c1)C(=O)N(C)C [Example 28, (R)-2-((4-(2-chloro-4-fluorophenyl)-2-oxo-2H-chromen-7-yl)amino)-N,N-dimethylpropanamide]	800 nM
CNC(=O)CCN(C)c1ccc2c(-c3ccccc3C)cc(=O)oc2c1 [Example 140, N-methyl-3-(methyl(2-oxo-4-(o-tolyl)-2H-chromen-7-yl)amino)propanamide]	900 nM
Cc1ccccc1-c1cc(=O)oc2cc(C(=O)N(C)Cc3nccn3C)ccc12 [Example 114, N-methyl-N-((1-methyl-1H-imidazol-2-yl)methyl)-2-oxo-4-(o-tolyl)-2H-chromene-7-carboxamide]	36000 nM
CCCNC(=O)c1ccc2c(-c3ccc(F)cc3Cl)cc(=O)oc2c1 [Example 22, 4-(2-chloro-4-fluorophenyl)-2-oxo-N-propyl-2H-chromene-7-carboxamide]	25000 nM
Cc1ccccc1-c1cc(=O)oc2cc(NCc3ccnn3C)ccc12 [Example 192, 7-(((1-methyl-1H-pyrazol-5-yl)methyl)amino)-4-(o-tolyl)-2H-chromen-2-one]	2000 nM
Cc1ccccc1-c1cc(=O)oc2cc(CNC(=O)C3CCC(C(=O)O)CC3)ccc12 (stereo not drawn) [Example 153, 4-(((2-oxo-4-(o-tolyl)-2H-chromen-7-yl)methyl)carbamoyl)cyclohexane-1-carboxylic acid]	200 nM
CCOC(=O)/C=C/c1ccc2c(-c3ccccc3C)cc(=O)oc2c1 [Example 53, ethyl (E)-3-(2-oxo-4-(o-tolyl)-2H-chromen-7-yl)acrylate]	2000 nM
Cc1ccccc1-c1cc(=O)oc2cc(C(C)CC(=O)N3CCC[C@H](C(=O)O)C3)ccc12 (single isomer, unassigned) [Example 81]	1000 nM
Cc1ccccc1-c1cc(=O)oc2cc(N(C)CC(=O)NCC(=O)O)ccc12 [Example 223, N-methyl-N-(2-oxo-4-(o-tolyl)-2H-chromen-7-yl)glycylglycine]	800 nM
Cc1ccccc1-c1cc(=O)oc2cc(NCc3ncco3)ccc12 [Example 166, 7-((oxazol-2-ylmethyl)amino)-4-(o-tolyl)-2H-chromen-2-one]	5000 nM
C[C@H](Cc1ccc2c(-c3ccc(F)cc3Cl)cc(=O)oc2c1)C(=O)N(C)C [Example 21, (R)-3-(4-(2-chloro-4-fluorophenyl)-2-oxo-2H-chromen-7-yl)-N,N,2-trimethylpropanamide]	49000 nM
Cc1ccccc1-c1cc(=O)oc2cc(CCC(=O)N3CCCCC3)ccc12 [Example 49, 7-(3-oxo-3-(piperidin-1-yl)propyl)-4-(o-tolyl)-2H-chromen-2-one]	1000 nM
COc1ccccc1-c1cc(=O)oc2cc(NC(C)=O)ccc12 [Example 29, N-(4-(2-methoxyphenyl)-2-oxo-2H-chromen-7-yl)acetamide]	> 100000 nM
CCOC(=O)[C@H]1C[C@@H]1c1ccc2c(-c3ccccc3C)cc(=O)oc2c1 [Example 225, ethyl (1S,2S)-2-(2-oxo-4-(o-tolyl)-2H-chromen-7-yl)cyclopropane-1-carboxylate]	700 nM
CNCc1ccc2c(-c3ccc(F)cc3Cl)cc(=O)oc2c1 [Example 04, 4-(2-chloro-4-fluorophenyl)-7-((methylamino)methyl)-2H-chromen-2-one]	> 100000 nM
Cc1ccccc1-c1cc(=O)oc2cc(C(=O)N3CC(CO)C3)ccc12 [Example 118, 7-(3-(hydroxymethyl)azetidine-1-carbonyl)-4-(o-tolyl)-2H-chromen-2-one]	15000 nM
Cc1ccccc1-c1cc(=O)oc2cc([C@@H]3C[C@H]3C(N)=O)ccc12 (relative stereo) [Example 239, chiral-(trans)-2-(2-oxo-4-(o-tolyl)-2H-chromen-7-yl)cyclopropane-1-carboxamide]	900 nM
CC(=O)NC[C@@H]1CCN(C(=O)c2ccc3c(-c4ccccc4C)cc(=O)oc3c2)C1 [Example 196, (S)—N-((1-(2-oxo-4-(o-tolyl)-2H-chromene-7-carbonyl)pyrrolidin-3-yl)methyl)acetamide]	42000 nM

SMILES	IC50
Cc1ccccc1-c1cc(=O)oc2cc(N(C)[C@@H](C)CC(=O)O)ccc12 [Example 228, (S)-3-(methyl(2-oxo-4-(o-tolyl)-2H-chromen-7-yl)amino)butanoic acid]	200 nM
COC[C@@H](Nc1ccc2c(-c3ccccc3C)cc(=O)oc2c1)C(=O)N1CCC[C@H](C(=O)O)C1 [Example 104, (S)-1-(O-methyl-N-(2-oxo-4-(o-tolyl)-2H-chromen-7-yl)-D-seryl)piperidine-3-carboxylic acid]	300 nM
CNC(=O)C1CC1c1ccc2c(-c3ccccc3C)cc(=O)oc2c1 (stereo not drawn) [Example 135, chiral-N-methyl-2-(2-oxo-4-(o-tolyl)-2H-chromen-7-yl)cyclopropane-1-carboxamide]	9000 nM
Cc1ccccc1-c1cc(=O)oc2cc(N(C)Cc3ccon3)ccc12 [Example 204, 7-((isoxazol-3-ylmethyl)(methyl)amino)-4-(o-tolyl)-2H-chromen-2-one]	30 nM
Cc1ccccc1-c1cc(=O)oc2cc(C(=O)Nc3ccccc3)ccc12 [Example 35, 2-oxo-N-phenyl-4-(o-tolyl)-2H-chromene-7-carboxamide]	2000 nM
Cc1ccccc1-c1cc(=O)oc2cc(CN(C)C(=O)C3CCC(C(=O)O)CC3)ccc12 (stereo not drawn) [Example 229, 4-(methyl((2-oxo-4-(o-tolyl)-2H-chromen-7-yl)methyl)carbamoyl)cyclohexane-1-carboxylic acid]	100 nM
Cc1ccccc1-c1cc(=O)oc2cc(CC(C)C(N)=O)ccc12 (single isomer, unassigned) [Example 69, 2-methyl-3-(2-oxo-4-(o-tolyl)-2H-chromen-7-yl)propanamide]	5000 nM
COC(=O)C1CN(C(=O)c2ccc3c(-c4ccccc4C)cc(=O)oc3c2)C1 [Example 182, methyl 1-(2-oxo-4-(o-tolyl)-2H-chromene-7-carbonyl) azetidine-3-carboxylate]	12000 nM
COCC(Cc1ccc2c(-c3ccccc3C)cc(=O)oc2c1)C(N)=O (single isomer, unassigned) [Example 208, 3-methoxy-2-((2-oxo-4-(o-tolyl)-2H-chromen-7-yl)methyl)propanamide]	3000 nM
Cc1ccccc1-c1cc(=O)oc2cc(N(C)Cc3ccn[nH]3)ccc12 [Example 178, 7-(((1H-pyrazol-5-yl)methyl)(methyl)amino)-4-(o-tolyl)-2H-chromen-2-one]	50 nM
Cc1ccccc1-c1cc(=O)oc2cc(NCCC(=O)O)ccc12 [Example 145, 3-((2-oxo-4-(o-tolyl)-2H-chromen-7-yl)amino)propanoic acid]	4000 nM
Cc1ccccc1-c1cc(=O)oc2cc([C@H]3C[C@H]3C(N)=O)ccc12 (relative stereo) [Example 235, (cis)-2-(2-oxo-4-(o-tolyl)-2H-chromen-7-yl)cyclopropane-1-carboxamide]	2000 nM
CCOC(=O)[C@@H]1C[C@@H]1c1ccc2c(-c3ccccc3C)cc(=O)oc2c1 [Example 224, ethyl (1R,2S)-2-(2-oxo-4-(o-tolyl)-2H-chromen-7-yl)cyclopropane-1-carboxylate]	300 nM
CN(Cc1ccc2c(-c3ccc(F)cc3Cl)cc(=O)oc2c1)C(=O)N1CCC[C@H](C(=O)O)C1 [Example 08, (S)-1-(((4-(2-chloro-4-fluorophenyl)-2-oxo-2H-chromen-7-yl)methyl)(methyl)carbamoyl)piperidine-3-carboxylic acid]	1000 nM
C[C@H](C(=O)N1CCCCC1)N(C)c1ccc2c(-c3ccc(F)cc3Cl)cc(=O)oc2c1 [Example 45, (R)-4-(2-chloro-4-fluorophenyl)-7-(methyl(1-oxo-1-(piperidin-1-yl)propan-2-yl)amino)-2H-chromen-2-one]	50 nM
CCOC(=O)[C@H]1CCCN(C(=O)[C@@H](C)Oc2cc(C)cc3oc(=O)cc(-c4ccc(F)cc4)c23)C1 [Example 159, ethyl (S)-1-((R)-2-((4-(4-fluorophenyl)-7-methyl-2-oxo-2H-chromen-5-yl)oxy)propanoyl)piperidine-3-carboxylate]	> 100000 nM
Nc1ccc2c(-c3ccc(F)cc3Cl)cc(=O)oc2c1 [Example 11, 7-amino-4-(2-chloro-4-fluorophenyl)-2H-chromen-2-one]	24000 nM
Cc1ccccc1-c1cc(=O)oc2cc(C(=O)N(C)CC(N)=O)ccc12 [Example 112, N-(2-amino-2-oxoethyl)-N-methyl-2-oxo-4-(o-tolyl)-2H-chromene-7-carboxamide]	27000 nM
Cc1cc(O[C@H](C)C(=O)N2CCC[C@H](C(=O)O)C2)c2c(-c3ccc(F)cc3)cc(=O)oc2c1 [Example 160, (S)-1-((R)-2-((4-(4-fluorophenyl)-7-methyl-2-oxo-2H-chromen-5-yl)oxy)propanoyl)piperidine-3-carboxylic acid]	> 100000 nM
CNC(=O)[C@@H]1C[C@H]1c1ccc2c(-c3ccccc3C)cc(=O)oc2c1 (relative stereo) [Example 232, (trans)-N-methyl-2-(2-oxo-4-(o-tolyl)-2H-chromen-7-yl)cyclopropane-1-carboxamide]	2000 nM
Cc1ccccc1-c1cc(=O)oc2cc(NCc3ccccn3)ccc12 [Example 164, 7-((pyridin-2-ylmethyl)amino)-4-(o-tolyl)-2H-chromen-2-one]	4000 nM
